From patent US20150371009A1, “DRUG IDENTIFICATION MODELS AND METHODS OF USING THE SAME TO IDENTIFY COMPOUNDS TO TREAT DISEASE” (priority 2014, published 2015)

Assays:
[1] = tested on: SK-BR-3 breast cancer cell line (ER−); assay: In vitro cell line proliferation assay (MTS), SKBR3; assay type: cell-based; settings: 96 hours; for inhibition of cell line proliferation: ER− SKBR3, escalating doses
Description: (§1) In vitro cell line proliferation assays. MCF7 and SK-BR-3 breast cancer cell lines were provided by the American Type Culture Collections (ATCC; Manassas, Va.) and cultured in complete medium (high glucose DMEM supplemented with 10% fetal bovine serum, L-glutamine, and pen/strep antibiotics). Drugs were purchased from Sigma-Aldrich (St. Louis, Mo.). Proliferation assays were performed as previously described with minor modifications. Cells were seeded at 5×10^3 cells per well in a 96 well plate in the morning. […] The plates were incubated at 37° C./5% CO2 for 96 hours. Cell proliferation was analyzed using MTS reagent (Promega; Madison, Wis.) according to manufacturer's protocol.
(§2) Tamoxifen was selected as a currently used breast cancer drug for comparison. […] Cell proliferation was measured using the MTS assay according to manufacturer's protocol.

[2] = tested on: MCF7 breast cancer cell line (ER+); assay: In vitro cell line proliferation assay (MTS), MCF7; assay type: cell-based; settings: 96 hours; for inhibition of cell line proliferation: ER+ MCF7, escalating doses
Description: as §1, §2

[3] = patients; donepezil doses up to 23 mg/day; cited from earlier work

| IC50 ([1]; ER− SKBR3 cells, complete medium, MTS) [µM] | IC50 ([2]; ER+ MCF7 cells, complete medium, MTS) [µM] | Compound | inhibition of cell line proliferation [1] | inhibition of cell line proliferation [2] | side effects / worst adverse drug reactions [3] |
| --- | --- | --- | --- | --- | --- |
| 55.7 ± 4.2 | 31.2 ± 4.9 | 4-hydroxytamoxifen [Drug 4OHtam] | dose dependent inhibition | dose dependent inhibition | – |
| – | – | COc1cc2c(cc1OC)C(=O)C(CC1CCN(Cc3ccccc3)CC1)C2 (racemic) [Donepezil, (RS)-2-[(1-benzyl-4-piperidyl)methyl]-5,6-dimethoxy-2,3-dihydroinden-1-one] | dose dependent inhibition | dose dependent inhibition | – |
| – | – | CC/C(=C(\c1ccccc1)c1ccc(OCCN(C)C)cc1)c1ccccc1 [Tamoxifen] | – | – | severe side effects including the development of endometrial cancer |
